Measurements reported in patent US20080247991A1, “Solution Additives For the Attenuation of Protein Aggregation” (priority 2004, published 2008).
pKd: −log10 of the molar value. Marks after values point to notes of the source that are not given here.

Key:
RNase T1 = target: T1, RNase T1 (Aspergillus oryzae, UniProt P00651); conditions: interpolated to mbulk 1.10 m; cited from earlier work
T1 sequence (P00651 27-130): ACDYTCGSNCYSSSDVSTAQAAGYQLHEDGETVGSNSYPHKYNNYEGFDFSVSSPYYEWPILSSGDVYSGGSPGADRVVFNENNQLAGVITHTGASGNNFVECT

[1] = target: T2, insulin binding to immobilized monoclonal anti-insulin (Homo sapiens, UniProt P01308); assay: Surface plasmon resonance (Biacore 3000): globular protein association/dissociation kinetics in buffer with additive; conditions: for ka / kd: pH 7.4, estimated error 15%; for ka/ka0 / kd/kd0: 0.5 M additive, relative to HBS-EP + 0.5 M NaCl; for effect on association rate of insulin and anti-insulin / effect on dissociation rate of insulin and anti-insulin: 0.5M, relative to 0.5M NaCl control
T2 construct: purchased Sigma-Aldrich (insulin); Fitzgerald Industries (antibody) I8530; 10-130 clone M322214
Experimental: Surface plasmon resonance experiments were conducted to measure the effect of added ArgHCl and GuHCl on the kinetics of globular protein association and dissociation versus an equimolar salt control (NaCl). The data set shown in the figure is a composition of 8 different concentration runs plus replicates, for a total of 16 runs. At t=140 sec, the flow cell with immobilized anti-insulin was exposed to a constant concentration of insulin in the range of 2 to 188 nM for 3 minutes. During this 3 minutes, the antibody and antigen were free to associate and dissociate. The net reaction is the binding of free antigen in solution, resulting in an increase in detector response proportional to the mass of antigen bound. At t=320 sec, the insulin concentration in the flow cell inlet is returned to zero, and the bound antigen then dissociates from the surface. All 16 runs were simultaneously fit to a binding model by minimizing the squared residuals to yield the association and dissociation rate constants, ka and kd. This process was repeated to yield association, dissociation, and equilibrium constant data for the model systems in various buffers as shown in Table 4.
Globular Protein Association Kinetics—Protein association and dissociation rate constants, ka and kd, were measured for globular proteins via surface plasmon resonance on a Biacore 3000 instrument. Monoclonal anti-insulin was immobilized on a Biacore CM5 sensor chip via amine coupling. The amount of immobilized antibody was selected to give a detector response in the range of 50-100 RU when antigen was present. A reference surface was created by activating and deactivating the surface without coupling an antibody to it.
Different concentrations of insulin in the nanomolar range ([…]) were prepared by dilution and injected serially into the antibody-containing and reference flow cells. […] Pocker, Y. & Biswas, Subhasis, B. (1981) Biochemistry 20, 4354-4361. The dissociation rate was sufficiently fast in buffer that a regeneration buffer was not required. Kinetic constants were extracted by simultaneous fitting of ka and kd to each set of sensorgrams using a 1:1 kinetic model in the BIAevaluation 3.0 software package.

carbonic anhydrase II [2] = target: T3, carbonic anhydrase II (Bos taurus, UniProt P00921); assay: Size exclusion HPLC of multimers formed during refolding of carbonic anhydrase; parameters: purchased Sigma-Aldrich C2522; species or system bovine; conditions: for yield of monomeric protein: 0.5M added, versus 0.5M NaCl; for A2, percentage of total carbonic anhydrase / A3-5, percentage of total carbonic anhydrase / A6-15, percentage of total carbonic anhydrase / M (monomer), percentage of total carbonic anhydrase / Large multimers, percentage of total carbonic anhydrase: [U]0 = 20 μM, 0.5 M additive; for Large multimers, percentage of total carbonic anhydrase: inferred by difference
Experimental: Size exclusion HPLC experiments were performed to analyze the distribution of multimers formed during refolding. CA was refolded with three different additives, 0.5M NaCl, 0.5M GuHCl, and 0.5M ArgHCl, relative to a base refolding buffers of 0.5M GuHCl, as done in the esterase activity assays above. […] Other than this protein concentration difference, these experiments allow direct comparison of how an additional 0.5M of the three different cations affect refolding.
The samples were not filtered prior to introduction into the HPLC column.
Size Exclusion HPLC—Size exclusion HPLC (SE-HPLC) experiments were performed on a Beckman System Gold HPLC instrument equipped with a Tosohaas G3000SWXL size exclusion column and a UV detector. 30 μl samples were introduced to the column by a constant flow of 1 ml/min mobile phase. Each sample ran for 15 minutes, with carbonic anhydrase eluting between 6 and 10 minutes, depending on its molecular weight and buffer. […] A mixture of lysozyme, carbonic anhydrase, and bovine serum albumin (monomer and dimer) was used as a standard to calibrate molecular weight to retention time. Using this calibration curve and the breakthrough time of the column, the largest multimer that could pass through the column was a 15-mer. When significant mass was missing from a chromatogram, large multimers were quantitated by difference. The presence of large multimers was confirmed via turbidity or dynamic light scattering for each buffer. The instrument was cleaned with 30 μl injections of 4M GuHCl, a denaturing concentration found to dissociate and elute precipitates and large soluble carbonic anhydrase multimers.

carbonic anhydrase II [3] = target: T3, carbonic anhydrase II; assay: Carbonic anhydrase refolding yield by esterase activity (pNPA); conditions: for α/α0 / α (refolding selectivity parameter, kr/kagg): 0.5 M additive, base buffer 0.5 M GuHCl; for α/α0: relative to 0.5M NaCl; for α (refolding selectivity parameter, kr/kagg): fit to second-order aggregation model; for order of yield of active protein as a function of buffer additive: equimolar (0.5M) additives
Experimental: Esterase activity assays were performed as a function of initial unfolded protein concentration and buffer composition to determine how equimolar concentrations of NaCl, ArgHCl, and GuHCl each affected refolding yield (FIG. 16).
High concentrations of carbonic anhydrase (>300 μM) were denatured in 6M GuHCl and equilibrated overnight. Refolding was initiated by dilution to 0.5M GuHCl with 50 mM Tris-HCl buffer, pH 7.5. This final GuHCl concentration was selected because it yields a mixture of active, refolded protein and aggregates. The distribution of this mixture was analyzed via esterase activity, size exclusion HPLC, and dynamic light scattering as described above.
Carbonic Anhydrase Esterase Activity—Esterase activity of carbonic anhydrase was assessed using para-nitrophenylacetate (pNPA) as the substrate as described previously. […] Briefly, 10 μl samples of carbonic anhydrase solution were added to 500 μl of Tris-HCl, pH 7.5 and 50 μl of 50 mM pNPA in acetonitrile. Kinetics of hydrolysis of pNPA was observed by the increase in absorbance at 400 nm due to the appearance of the paranitrophenolate ion (pNP^−). In all cases, the observed hydrolysis rate in absorbance units per second (AU/s) under these conditions was constant (pseudo-zero order). Hydrolysis rates were corrected for the hydrolysis of pNPA by the buffer for each type of buffer used. […] The active protein concentration data was reproducible to within 5-8% in replicated experiments.

carbonic anhydrase II [4] = target: T3, carbonic anhydrase II; parameters: purchased Sigma-Aldrich C2522; conditions: 1.0M GuHCl, carbonic anhydrase less than 30 μM; previous studies; cited from earlier work

T3 sequence (P00921 whole entry): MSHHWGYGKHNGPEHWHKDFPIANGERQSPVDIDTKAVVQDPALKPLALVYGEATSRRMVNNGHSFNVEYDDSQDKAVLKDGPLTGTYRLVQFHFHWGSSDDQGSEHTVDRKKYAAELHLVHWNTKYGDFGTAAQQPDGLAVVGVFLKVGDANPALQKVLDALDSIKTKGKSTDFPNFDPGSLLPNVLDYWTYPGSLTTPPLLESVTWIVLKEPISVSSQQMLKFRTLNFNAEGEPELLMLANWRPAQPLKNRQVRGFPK
T2 sequence (P01308 25-54 limits assumed): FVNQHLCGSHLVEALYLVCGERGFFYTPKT
T2 sequence (P01308 90-110 limits assumed): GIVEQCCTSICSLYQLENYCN

Structure (SMILES) | ka ([1]; 0.5 M additive in HBS-EP) [M⁻¹ s⁻¹] | kd ([1]; 0.5 M additive in HBS-EP) [s⁻¹] | ka/ka0 [1] | kd/kd0 [1] | effect on association rate of insulin and anti-insulin [1] | effect on dissociation rate of insulin and anti-insulin [1] | yield of monomeric protein (carbonic anhydrase II [2]) | A2, percentage of total carbonic anhydrase (carbonic anhydrase II [2]; time 2 min) [%] | A3-5, percentage of total carbonic anhydrase (carbonic anhydrase II [2]; time 2 min) [%] | A6-15, percentage of total carbonic anhydrase (carbonic anhydrase II [2]; time 2 min) [%] | M (monomer), percentage of total carbonic anhydrase (carbonic anhydrase II [2]; time 2 min) [%] | Large multimers, percentage of total carbonic anhydrase (carbonic anhydrase II [2]; time 2 min) [%] | A2, percentage of total carbonic anhydrase (carbonic anhydrase II [2]; time 20 min) [%] | A3-5, percentage of total carbonic anhydrase (carbonic anhydrase II [2]; time 20 min) [%] | A6-15, percentage of total carbonic anhydrase (carbonic anhydrase II [2]; time 20 min) [%] | M (monomer), percentage of total carbonic anhydrase (carbonic anhydrase II [2]; time 20 min) [%] | Large multimers, percentage of total carbonic anhydrase (carbonic anhydrase II [2]; time 20 min) [%] | A2, percentage of total carbonic anhydrase (carbonic anhydrase II [2]; time 38 min) [%] | A3-5, percentage of total carbonic anhydrase (carbonic anhydrase II [2]; time 38 min) [%] | A6-15, percentage of total carbonic anhydrase (carbonic anhydrase II [2]; time 38 min) [%] | further results
NC(N)=O [Urea] | – | – | – | – | – | – | – | – | – | – | – | – | – | – | – | – | – | – | – | – | Experimental ΓXP (RNase T1): 6.4^a
Cl.N=C(N)NCCC[C@H](N)C(=O)O [ArgHCl, arginine hydrochloride] | 12000 | 0.022 | 0.27 | 1.6 | slowed | accelerated | significantly increased | 30 | 25 | 21 | 22 | 2 | 7 | 14 | 26 | 54 | −1 | 4 | 11 | 24 | pKd ([1]; 0.5 M additive in HBS-EP, KD ≡ kd/ka): 5.74; average aggregate molecular weight (ignoring the monomer) (carbonic anhydrase II [2]; 0.5M additive, compared among the three buffers): lowest; M (monomer), percentage of total carbonic anhydrase (carbonic anhydrase II [2]; time 38 min): 62%; Large multimers, percentage of total carbonic anhydrase (carbonic anhydrase II [2]; time 38 min): −1%; A2, percentage of total carbonic anhydrase (carbonic anhydrase II [2]; time 1500 min): 0%; A3-5, percentage of total carbonic anhydrase (carbonic anhydrase II [2]; time 1500 min): 0%; A6-15, percentage of total carbonic anhydrase (carbonic anhydrase II [2]; time 1500 min): 19%; M (monomer), percentage of total carbonic anhydrase (carbonic anhydrase II [2]; time 1500 min): 80%; Large multimers, percentage of total carbonic anhydrase (carbonic anhydrase II [2]; time 1500 min): 1%; α/α0 (carbonic anhydrase II [3]): 5.0; α (refolding selectivity parameter, kr/kagg) (carbonic anhydrase II [3]): 47 µM; order of yield of active protein as a function of buffer additive (carbonic anhydrase II [3]): NaCl<<ArgHCl<GuHCl
Cl.N=C(N)N [GuHCl, Guanidinium chloride] | 40000 | 0.094 | 0.91 | 6.7 | insignificant effect | significantly increases | significantly increased | 39 | 8 | 0 | 42 | 11 | 3 | 6 | 0 | 82 | 9 | 1 | 5 | 0 | effect on association rate of insulin and anti-insulin ([1]; listed as guanidinium): little effect; effect on dissociation rate of insulin and anti-insulin ([1]; listed as guanidinium): accelerated; M (monomer), percentage of total carbonic anhydrase (carbonic anhydrase II [2]; time 38 min): 85%; Large multimers, percentage of total carbonic anhydrase (carbonic anhydrase II [2]; time 38 min): 9%; A2, percentage of total carbonic anhydrase (carbonic anhydrase II [2]; time 1500 min): 0%; A3-5, percentage of total carbonic anhydrase (carbonic anhydrase II [2]; time 1500 min): 2%; A6-15, percentage of total carbonic anhydrase (carbonic anhydrase II [2]; time 1500 min): 0%; M (monomer), percentage of total carbonic anhydrase (carbonic anhydrase II [2]; time 1500 min): 89%; Large multimers, percentage of total carbonic anhydrase (carbonic anhydrase II [2]; time 1500 min): 9%; yield of native protein (carbonic anhydrase II [4]): ~100%; α/α0 (carbonic anhydrase II [3]): 8.2; α (refolding selectivity parameter, kr/kagg) (carbonic anhydrase II [3]): 77 µM; order of yield of active protein as a function of buffer additive (carbonic anhydrase II [3]): NaCl<<ArgHCl<GuHCl
